{
  "source": "paper PMC7665244",
  "about": "(Developmental cell, 2019)",
  "target": "hCFTR (human CFTR) (Homo sapiens, UniProt P13569)",
  "sequence (P13569 whole entry)": "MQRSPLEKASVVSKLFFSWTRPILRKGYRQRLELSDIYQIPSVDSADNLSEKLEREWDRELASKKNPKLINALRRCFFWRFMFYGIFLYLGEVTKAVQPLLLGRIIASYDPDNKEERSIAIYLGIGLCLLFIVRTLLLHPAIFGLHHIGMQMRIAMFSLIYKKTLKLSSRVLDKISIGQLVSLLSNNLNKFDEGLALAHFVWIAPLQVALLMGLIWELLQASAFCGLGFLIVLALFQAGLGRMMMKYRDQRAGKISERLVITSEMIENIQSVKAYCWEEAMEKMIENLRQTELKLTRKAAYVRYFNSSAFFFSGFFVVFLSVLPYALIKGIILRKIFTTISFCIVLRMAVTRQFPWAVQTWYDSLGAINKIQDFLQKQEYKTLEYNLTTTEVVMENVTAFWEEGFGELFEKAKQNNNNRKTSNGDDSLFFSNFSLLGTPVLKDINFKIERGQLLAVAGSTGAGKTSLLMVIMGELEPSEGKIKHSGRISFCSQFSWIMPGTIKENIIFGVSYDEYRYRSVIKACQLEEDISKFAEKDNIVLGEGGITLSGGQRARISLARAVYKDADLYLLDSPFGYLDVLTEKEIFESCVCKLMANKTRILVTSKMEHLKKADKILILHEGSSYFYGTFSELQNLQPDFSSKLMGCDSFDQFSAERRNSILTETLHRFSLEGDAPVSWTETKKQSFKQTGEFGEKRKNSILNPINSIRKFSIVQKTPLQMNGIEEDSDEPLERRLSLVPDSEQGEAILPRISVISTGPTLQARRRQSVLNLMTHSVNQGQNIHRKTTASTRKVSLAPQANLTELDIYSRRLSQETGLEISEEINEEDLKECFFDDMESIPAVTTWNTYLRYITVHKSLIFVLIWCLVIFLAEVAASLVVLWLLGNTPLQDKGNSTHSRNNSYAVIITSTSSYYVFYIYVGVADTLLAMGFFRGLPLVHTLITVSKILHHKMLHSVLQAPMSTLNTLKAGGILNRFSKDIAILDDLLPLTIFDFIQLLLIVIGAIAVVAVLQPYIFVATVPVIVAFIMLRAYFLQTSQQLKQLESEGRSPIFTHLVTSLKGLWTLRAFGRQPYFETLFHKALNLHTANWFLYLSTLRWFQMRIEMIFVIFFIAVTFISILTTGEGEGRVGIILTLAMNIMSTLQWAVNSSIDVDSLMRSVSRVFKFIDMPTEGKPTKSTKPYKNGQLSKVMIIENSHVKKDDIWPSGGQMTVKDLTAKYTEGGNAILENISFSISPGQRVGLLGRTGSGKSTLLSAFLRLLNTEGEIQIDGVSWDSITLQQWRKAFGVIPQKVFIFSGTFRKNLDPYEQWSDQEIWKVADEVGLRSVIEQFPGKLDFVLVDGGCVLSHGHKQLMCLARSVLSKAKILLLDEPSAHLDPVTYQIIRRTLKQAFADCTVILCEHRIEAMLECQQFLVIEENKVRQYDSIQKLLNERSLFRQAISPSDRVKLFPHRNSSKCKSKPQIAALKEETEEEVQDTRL",
  "test": "inside-out oocyte macropatch current",
  "type": "biochemical",
  "details": "1 mM ATP and PKA 127.6 U/mL; potentiator",
  "data": [
    {"compound": "CC(C)(C)c1cc(C(C)(C)C)c(NC(=O)c2c[nH]c3ccccc3c2=O)cc1O", "note": "[VX-770]", "values": [
      {"measurement": "fractional potentiation at 0.2 μM", "value": "although hCFTR is potentiated, Lp-CFTR shows no enhancement of function"}
    ]}
  ]
}
